Where “and” joins values, the source holds several entries; their conditions need not be identical. Identical values can stand only once. Entries after “also recorded” stand apart in the source; their conditions may differ. Like-named read-outs stand apart in the source and are kept apart here.
How the values were obtained:
[1] = system: rheumatoid arthritis patients; settings: cited from earlier work
[2] = cited from earlier work
[3] = system: patients with rheumatoid arthritis; settings: after switching from intramuscular to oral; cited from earlier work
[4] = system: patients with rheumatoid arthritis; settings: 15 mg per week, cited from earlier work
[5] = pediatric patients with juvenile rheumatoid arthritis, cited from earlier work
[6] = system: patients with active rheumatoid arthritis; settings: cited from earlier work; for patients achieving ACR20: 16 weeks, starting dose 15 mg per week; for time to achieve an ACR20 response: subgroup n=98; for ACR20 responders: subgroup ≥1 year since diagnosis with prior DMARDs or steroids (n=98)
[7] = Pharmacokinetics of methotrexate in plasma after subcutaneous injection with autoinjector or needle/syringe; settings: for AUC(0-inf) / AUC(0-τ) / Tmax / T½ / AUC: plasma; for AUC(0-t): individual animals; for AUC: AUC(0-τ)
[8] = Autoinjector, Female, 12.5 mg SC, animals S5196028/S5195684/S5195757
[9] = Autoinjector, Male, 12.5 mg SC, animals S5196273/S5196559/S5196206
[10] = Syringe, Female, 12.5 mg SC, animals S5196028/S5195684/S5195757
[11] = Syringe, Male, 12.5 mg SC, animals S5196273/S5196559/S5196206

CN(Cc1cnc2nc(N)nc(N)c2n1)c1ccc(C(=O)N[C@@H](CCC(=O)O)C(=O)O)cc1 [Methotrexate, L-(+)-N-[p-[[(2,4-Diamino-6-pteridinyl)methyl]methylamino]-benzoyl]glutamic acid]
patients judged to have moderate or marked improvement ([1]; 10 mg to 15 mg intramuscular once a week, 78 patients): Eighty-two
patients who deteriorated after switching to oral methotrexate ([1]; improved after switching back to intramuscular): 10 of 48 patients
peak serum concentrations and bioavailability, intramuscular versus subcutaneous ([2]; Brooks et al., 12.5 mg to 25 mg per week): similar
fall of total absorption after oral administration, maintenance versus starting dosage ([2]; Hamilton et al., start 7.5 mg per week, maintenance average 17 mg per week, 21 rheumatoid arthritis patients): about 13.5%
patients reporting nausea [3]: 48%
average DAS28 ([4]; after switch from oral to intramuscular administration): 5.2
average DAS28 ([4]; before switch from oral to intramuscular administration): 5.6
average mean serum concentration ([5]; about 1 hour): about 0.59 μM
average mean serum concentration ([5]; about 2 hours): about 0.44 μM
average mean serum concentration ([5]; about 3 hours): about 0.29 μM
patients achieving ACR20 ([6]; oral): 77%
time to achieve an ACR20 response ([6]; oral): 6 weeks
ACR20 responders ([6]; oral): 63%
further ACR20 non-responders with positive ACR20 response ([6]; subcutaneous dosage increased from 15 mg to 20 mg): 23%
patients achieving ACR20 ([6]; subcutaneous): 85%
time to achieve an ACR20 response ([6]; subcutaneous): 4 weeks
ACR20 responders ([6]; subcutaneous): 89%
ACR20 non-responders with positive ACR20 response after switch ([6]; switched from 15 mg oral to 15 mg subcutaneous at 16 weeks): 30%
difference in exposure / PK parameters between males and females ([7]; 12.5 mg SC, both devices): no marked difference; also recorded: no marked sex-related differences
exposure with autoinjector compared to needle/syringe ([7]; 12.5 mg SC, male and female minipigs): very similar; also recorded: comparable
AUC(0-inf) [7, 8]: 1859 ng·mL·h
AUC(0-τ) [7, 8]: 1857 ng·mL·h
Tmax [7, 8]: 15 min
T½ [7, 8]: 237 min and 196 min
AUC(0-t) ([7]; Autoinjector, Female, Day 8): 2498 ng·h/mL and 1857 ng·h/mL
T½ ([7]; Autoinjector, Male, 12.5 mg SC, Mean): 115 min
Tmax ([7]; Autoinjector, Male, 12.5 mg SC, Median): 15 min
AUC(0-inf) [7, 9]: 1903 ng·mL·h and 1407 ng·mL·h
Tmax [7, 9]: 15 min
T½ [7, 9]: 120 min
AUC(0-t) ([7]; Needle/Syringe, Female, Day 1): 2378 ng·h/mL and 1831 ng·h/mL
Tmax ([7]; Syringe, Female, 12.5 mg SC, Median): 15 min
AUC(0-inf) [7, 10]: 2675 ng·mL·h and 1832 ng·mL·h
Tmax [7, 10]: 15 min
Tmax ([7]; Syringe, Male, 12.5 mg SC, Median): 15 min
T½ ([7]; Syringe, Male, 12.5 mg SC, animal S5196559): 115 min
AUC(0-τ) [7, 11]: 2464 ng·mL·h and 2016 ng·mL·h
Tmax [7, 11]: 15 min and 30 min
time at which maximal plasma concentrations were generally observed ([7]; both devices, first collection time point): 0.25 h
AUC(0-inf) ([7]; female, Gottingen, minipig, sc, 12.5 mg, AUC(0-inf), Autoinjector, 12.5 mg SC, Mean): 2510 ng·h/mL
AUC(0-inf) ([7]; female, Gottingen, minipig, sc, 12.5 mg, AUC(0-inf), Autoinjector, 12.5 mg SC, animals S5196028/S5195684/S5195757): 3170 ng·h/mL
AUC(0-inf) ([7]; female, Gottingen, minipig, sc, 12.5 mg, AUC(0-inf), Syringe, 12.5 mg SC, Mean): 2300 ng·h/mL
AUC(0-inf) ([7]; female, Gottingen, minipig, sc, 12.5 mg, AUC(0-inf), Syringe, 12.5 mg SC, animals S5196028/S5195684/S5195757): 2380 ng·h/mL
AUC ([7]; female, Gottingen, minipig, sc, 12.5 mg, Syringe, 12.5 mg SC, animals S5196028/S5195684/S5195757): 1830 ng·h/mL
AUC(0-inf) ([7]; male, Gottingen, minipig, sc, 12.5 mg, AUC(0-inf), Autoinjector, 12.5 mg SC, Mean): 1490 ng·h/mL
AUC(0-inf) ([7]; male, Gottingen, minipig, sc, 12.5 mg, AUC(0-inf), Autoinjector, 12.5 mg SC, animals S5196273/S5196559/S5196206): 1160 ng·h/mL
AUC(0-inf) ([7]; male, Gottingen, minipig, sc, 12.5 mg, AUC(0-inf), Syringe, 12.5 mg SC, animal S5196559): 2470 ng·h/mL
AUC ([7]; male, Gottingen, minipig, sc, 12.5 mg, Syringe, 12.5 mg SC, Mean): 1940 ng·h/mL
AUC ([7]; male, Gottingen, minipig, sc, 12.5 mg, Syringe, 12.5 mg SC, animals S5196273/S5196559/S5196206): 1320 ng·h/mL
